Like-named read-outs stand apart in the source and are kept apart here.
Legend:
HeLa cells [1] = experiment: Dopamine-induced cell death in HeLa cells (beta-galactosidase reporter viability); format: cell-based, Human; conditions: 18 hours; for cell survival rate: P<0.001
Procedure: (§2) Models of Apoptosis: • Three model systems of cell death were used: • 1. […] Apoptosis induced by Bax. This model utilizes an in vitro assay system for regulation of cell death by the Bcl-2 family of proteins: Cells were grown as described above in example 3a. Cells from log phase of growth were harvested using trypsin/EDTA and resuspended at a density of 5.0×10^6 cells/ml in 400 μl PBS. Cell suspension was then transferred to electroporation chambers containing a marker plasmid (pCDNA/Lac z) encoding beta-galactosidase as a reporter gene (10 μg)+a control plasmid (pCDNA), to bring total plasmid quantity to 23 micrograms+one of the following regimens: • 1. An expression plasmid, encoding Bcl-2 (0.42 μg) • 2. An expression plasmid, encoding Bax (0.42 μg). • 3. Bcl-2-encoding plasmid+Bax-encoding plasmid (0.42 μg each). • 4. Test compound, or an expression plasmid encoding for the test peptide+either Bcl-2-encoding plasmid or Bax-encoding plasmid or both. • 5. Control: only the marker plasmid.
Cell viability was then evaluated by the measurement of the beta-galactosidase activity, as specified above.
Synthetic DIP1 was introduced into HeLa cells with a beta-galactosidase reporter plasmid by electroporation. […] Cell viability was then evaluated by measurement of the beta-galactosidase activity.

HeLa cells [2] = conditions: 18 hours
Procedure: as §2
Cell viability was then evaluated by determining beta-galactosidase activity.

HeLa cells [3] = experiment: In vitro assay system for regulation of cell death by the Bcl-2 family (Bax-induced cell death, electroporation, beta-galactosidase reporter); format: cell-based, Human; conditions: for cell viability as compared to controls: expression plasmid transfected alone by electroporation, 18 hours post-transfection
Source text: This assay is based on transient transfection of cultured cells (e.g., HeLa cells, SH-SY5Y neuroblastoma cells. PC12, pheochromocytoma cells, 293 kidney cells, primary neuronal cells etc.), via electroporation or cationic-lipid-mediated transfection, by an expression vector, harboring a reporter gene (e.g. the gene encoding for beta-galactosidase, or the gene encoding for luciferase). Based on the consideration that gene expression requires high level of function and integrity of cellular systems, a direct correlation can be drawn between the activity of the protein encoded by the reporter gene, and the survival rates of the transfected cells. The reporter gene is co-transfected with a second expression vector, carrying either the bcl-2 or bax genes, therefore affecting the cellular apoptotic threshold towards life or death, respectively. In addition, transfection of cells with a combination of both bcl-2 and bax genes is performed, to examine the activity of each of these two proteins in opposing the death-inhibitory or promoting-effect of the other, respectively.
(§1) a. Cell cultures: • 1. HeLa cells: Human cervical carcinoma cells (HeLa) were grown in Dulbecco's modified Eagle's medium (DMEM), supplemented with 10% fetal calf serum (FCS) and 1% penicillin-streptomycin-Nystatin solution (Biological Industries, Israel), and 1% L-Glutamine solution (2 mM, biological Industries, Israel). Cells were grown in monolayer at 37° C. in 5% CO2. • 2. Kidney 293 cells (T): Human embryonic kidney 293 cells were grown in the conditions described for the HeLa cells.
b. Models of Apoptosis: • Three model systems of cell death were used: • 1. Apoptosis induced by dopamine: Exposure of cells to dopamine at 100-500 micromolar for 24 hours induces cell death characteristic of apoptosis (Ziv I, et al., Neurosci Lett 170:136-140, 1994; Offen D, et al., Biochim Biophys Acta 1268:171-177, 1995; Masserano J M, et al., Mol Pharmacol 50:1309-1315, 1996; Shirvan A, et al., J. Neurochem 69:539-549, 1997; Corona V., et al., J. Neurochem 69:1870-1881, 1997; Velez-Pardo C, et al., Pharmacol Toxicol 80:76-84, 1997; Shinkai T, et al., J Neurosci Res. 393-399, 1997; Simantov R, et al., Neuroscience 74:39-50, 1996; Gabby M, et al., Neuropharmacology 35:571-578, 1996). […] Apoptosis induced by Bax. This model utilizes an in vitro assay system for regulation of cell death by the Bcl-2 family of proteins: Cells were grown as described above in example 3a. Cells from log phase of growth were harvested using trypsin/EDTA and resuspended at a density of 5.0×10^6 cells/ml in 400 μl PBS. Cell suspension was then transferred to electroporation chambers containing a marker plasmid (pCDNA/Lac z) encoding beta-galactosidase as a reporter gene (10 μg)+a control plasmid (pCDNA), to bring total plasmid quantity to 23 micrograms+one of the following regimens: • 1. An expression plasmid, encoding Bcl-2 (0.42 μg) • 2. An expression plasmid, encoding Bax (0.42 μg). • 3. Bcl-2-encoding plasmid+Bax-encoding plasmid (0.42 μg each). • 4. Test compound, or an expression plasmid encoding for the test peptide+either Bcl-2-encoding plasmid or Bax-encoding plasmid or both. • 5. Control: only the marker plasmid.
After one minute of incubation, electroporation was performed at 1050 μF and 220 V for a duration of 10-30 ms, using an Equibio gene pulser. Cells from the cuvettes were then pooled into a complete medium with 10% FCS, and 1×10^6 cells were aliquoted into 3.5 cm plates. At 18 hours post-transfection, cell viability was assessed through measurement of beta-galactosidase activity by standard methods (Sambrook, Fritch, Maniatis, Molecular cloning; A laboratory manual, Cold Spring Harbour Laboratory Press, pp 16.66, 1989). OD values were expressed as percent of control, and statistical significance was evaluated by appropriate parametric or non-parametric statistical tests.
Methods: An expression plasmid, encoding the DIP1 (synthesized as described above in Example 2) was used. […]

[4] = test system: embryonic kidney 293T cells; experiment: Cell-killing effect of Bax on embryonic kidney 293T cells (beta-galactosidase reporter); format: cell-based, Human; conditions: expression plasmids encoding Bax and DIP1, Superfect transfection, 18 hours
Procedure: as §1
Methods: Human embryonic kidney 293T cells were grown as specified in Example 3.a. Cells were co-transfected using the Superfect Transfection Kit (Quiagen), with 5 μg total DNA of the following effectors: pCDNA/Lac-z reporter plasmid and one of the following:
• 1). Expression plasmid encoding DIP1. • 2). Expression plasmid encoding Bax. • 3). Expression plasmids, encoding Bax and DIP1.
After 18 hours, the cells were harvested for beta-galactosidase activity assay.
Human embryonic kidney 293T cells were co-transfected by […] with a reporter plasmid encoding beta-galactosidase, in combination with either an expression plasmid encoding DIP1; an expression plasmid encoding Bax; or expression plasmids encoding Bax and DIP1. Cell viability was evaluated after 18 hours, by measurement of beta-galactosidase activity.

NCCc1ccc(O)c(O)c1 [dopamine, reference compound] was tested, and the cell survival (HeLa cells [1]; dopamine 150 μM alone) was 30.8 ± 6.0% of control and the cell survival (HeLa cells [1]; dopamine 300 μM alone) was 8.4 ± 7.0% of control.
For OO [hydrogen peroxide, reference compound], the cell survival rate (HeLa cells [2]; hydrogen peroxide 100 μM alone, mean±SD) was 20.4±2.8% of control and the cell survival rate (HeLa cells [2]; hydrogen peroxide 200 μM alone, mean±SD) was 5.8±2.1% of control.
“Bax: death-inducing Bcl-2 family protein, expressed from a transfected expression plasmid” was tested, and the cell survival rate (HeLa cells [3]; Bax-encoding plasmid alone, 18 hours) was 37.0 ± 2.2% and the “cell viability as compared to controls” value (HeLa cells [3]) was “marked death-inducing effect”.
For “Bcl-2: death-inhibitory protein, expressed from a transfected expression plasmid”, the “cell-killing effect of Bax on co-transfection” value (HeLa cells [3]; co-transfection with Bax-encoding plasmid, 18 hours) was “markedly counteracted” and the “cell viability as compared to controls” value (HeLa cells [3]) was “increases cell viability”.
“H-FELRYRRAF-OH [DIP1, Phe-Glu-Leu-Arg-Tyr-Arg-Arg-Ala-Phe]” was tested, and the cell survival rate (HeLa cells [1]; synthetic DIP1 by electroporation + dopamine 150 μM) was 75.4+9.0%, the cell survival rate (HeLa cells [1]; synthetic DIP1 by electroporation + dopamine 300 μM) was 40.2+8.0% and the “counteracting Bax toxicity” value [4] was “markedly active in counteracting Bax toxicity”. For the same molecule, the cell survival rate (HeLa cells [3]; co-transfection of DIP1-encoding plasmid with Bax-encoding plasmid, 18 hours, p<0.001) was 71.4 ± 9.4 % of control, the “cell viability as compared to controls” value (HeLa cells [3]) was “markedly enhanced cell viability” and the cell survival rate (HeLa cells [2]; synthetic DIP1 by electroporation + hydrogen peroxide 100 μM, p<0.001) was 53.3±8.8%. It also gave a cell survival rate (HeLa cells [2]; synthetic DIP1 by electroporation + hydrogen peroxide 200 μM, p<0.001) of 33.4±3.7%.
